This is an account of results in PMC11767309 (Molecules, 2025).

Series [1] addresses T1, butyrylcholinesterase (BChE) (Equus caballus, UniProt P81908).
T1 construct: butyrylcholinesterase (BChE, E.C. from equine serum); purchased Sigma Aldrich (St. Louis, MO, USA); host or cells: equine serum
Kind of series: biochemical. More on the design: species or system equine. Conditions: for IC50: BChE IC50 (μM).

For series [2], the target named is T2, acetylcholinesterase (AChE) (Electrophorus electricus, UniProt O42275).
T2 construct: purchased Sigma Aldrich (St. Louis, MO, USA)
Kind of series: biochemical. Also noted: species or system electric eel. The settings on record: read-out: AChE Inhibition (%).

The test system of the next series is BChE. Conditions: selectivity BChE over AChE; cited from earlier work.
Series [3] can be described thus: Complex formation with Fe^3+, spectrophotometric titration. The series is classed as physicochemical. Conditions: for Molar absorptivities at the longer-wavelength band maxima, ε: free ligand; for absorbance vs. ligand concentration plot: titration at constant Fe(III) content; for absorptivity of the complex higher than that of the ligand / molar absorptivity of the complex formed: complex with Fe^3+; for molar absorptivity of the complex formed: slope of absorbance vs. ligand concentration plot. How it is done: For this purpose, the following compounds were selected: 1, 3, 6 and 7. The Fe^3+ ions strongly hydrolyze, decreasing the pH of the aqueous system; thus, acidic solutions were used to study the possible complex formation via spectrophotometric titrations.
The absorption spectra used to determine the molar absorptivity and to evaluate the complex formation constant were recorded with a Specord S600 spectrophotometer (Analytic Jena GmbH, Jena, Germany) in the 190–900 nm wavelength range. During the titration, the ligand concentration was increased at a constant Fe(III) content.

T1 sequence (P81908 whole entry): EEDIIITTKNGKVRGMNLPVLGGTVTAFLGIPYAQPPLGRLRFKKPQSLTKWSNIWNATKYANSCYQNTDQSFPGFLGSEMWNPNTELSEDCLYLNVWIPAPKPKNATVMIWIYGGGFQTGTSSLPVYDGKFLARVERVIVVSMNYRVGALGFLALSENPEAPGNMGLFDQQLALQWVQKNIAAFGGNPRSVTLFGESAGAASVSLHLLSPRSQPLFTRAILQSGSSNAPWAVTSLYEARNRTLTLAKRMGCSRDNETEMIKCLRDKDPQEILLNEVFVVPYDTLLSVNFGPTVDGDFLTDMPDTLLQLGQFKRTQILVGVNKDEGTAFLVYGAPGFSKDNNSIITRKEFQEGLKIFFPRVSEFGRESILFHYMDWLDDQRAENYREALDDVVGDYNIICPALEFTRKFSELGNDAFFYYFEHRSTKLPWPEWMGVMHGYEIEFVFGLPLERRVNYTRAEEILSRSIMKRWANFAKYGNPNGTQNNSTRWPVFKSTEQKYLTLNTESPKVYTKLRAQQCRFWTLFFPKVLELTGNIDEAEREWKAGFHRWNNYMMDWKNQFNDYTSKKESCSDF
T2 sequence (O42275 24-633): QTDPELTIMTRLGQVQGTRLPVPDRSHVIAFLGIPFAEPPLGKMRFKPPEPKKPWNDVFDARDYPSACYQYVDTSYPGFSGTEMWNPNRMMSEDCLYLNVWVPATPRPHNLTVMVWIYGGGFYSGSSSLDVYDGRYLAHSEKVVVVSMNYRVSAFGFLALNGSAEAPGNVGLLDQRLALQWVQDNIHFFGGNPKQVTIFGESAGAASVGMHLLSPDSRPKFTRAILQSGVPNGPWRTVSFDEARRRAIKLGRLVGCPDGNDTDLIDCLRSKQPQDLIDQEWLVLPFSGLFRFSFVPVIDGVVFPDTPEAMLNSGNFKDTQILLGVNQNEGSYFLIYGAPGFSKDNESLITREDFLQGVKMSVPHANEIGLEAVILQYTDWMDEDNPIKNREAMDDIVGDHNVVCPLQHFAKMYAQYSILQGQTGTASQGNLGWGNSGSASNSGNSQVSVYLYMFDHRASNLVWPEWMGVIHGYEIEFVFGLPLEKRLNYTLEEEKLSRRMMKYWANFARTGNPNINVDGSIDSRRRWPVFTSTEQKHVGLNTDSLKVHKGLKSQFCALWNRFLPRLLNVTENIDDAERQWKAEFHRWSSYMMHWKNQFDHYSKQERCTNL

For orientation: IC50 means the midpoint of a concentration-inhibition curve. Low readings indicate greater potency in that assay, high ones weaker potency in that assay. One may read the inhibition as the change of the read-out against control, counted positive when it falls. The molecule `Cc1cnc(/C=C/c2cc(Cl)ccc2OC(=O)N(C)C)s1` [Compound 13, (E)-4-chloro-2-(2-(5-methylthiazol-2-yl)vinyl)phenyl dimethylcarbamate] registered an IC50 in series [1] of 3.77 ± 0.13 µM. Further, the inhibition at 50 µM in series [1] (read-out: BChE Inhibition (%)) amounted to 84.1%. Also, in series [2], the inhibition at 100 µM worked out at 37.5%.

`Cc1ccc(/C=C/c2cc(Cl)ccc2OC(=O)N(C)C)s1` [Compound 10, (E)-4-chloro-2-(2-(5-methylthiophen-2-yl)vinyl)phenyl dimethylcarbamate] displayed an IC50 in series [1] of 23.2 ± 3.78 µM. Further, the inhibition at 100 µM in series [1] (read-out: BChE Inhibition (%)) came to 85.7%; in series [2], 27%.

On to `Cc1cnc(/C=C/c2cc(F)ccc2OC(=O)N(C)C)s1` [Compound 12, (E)-4-fluoro-2-(2-(5-methylthiazol-2-yl)vinyl)phenyl dimethylcarbamate], for which it took 23.4 ± 2.43 µM to reach half-maximal inhibition in series [1] (IC50). Also, the inhibition at 100 µM in series [1] (read-out: BChE Inhibition (%)) was determined as 81.4%; in series [2], 23.9%.

Turning to cymserine, in the series with BChE, the “more effective as a BChE inhibitor compared to AChE” value is 15 times.

Regarding `Cc1ccc(/C=C/c2cc(F)ccc2OC(=O)N(C)C)s1` [Compound 9, (E)-4-fluoro-2-(2-(5-methylthiophen-2-yl)vinyl)phenyl dimethylcarbamate], in series [1], the midpoint of inhibition, the IC50, lay at 15 ± 2.32 µM. Further, the inhibition at 100 µM in series [1] (read-out: BChE Inhibition (%)) was determined as 85.2%; in series [2], 23.6%.

With `Cc1ccc(/C=C/c2ccccc2OC(=O)N(C)C)s1` [Compound 7, (E)-2-(2-(5-methylthiophen-2-yl)vinyl)phenyl dimethylcarbamate], in series [3], the “Molar absorptivities at the longer-wavelength band maxima, ε” value (“Molar absorptivities” below) was 19,410 M^–1cm^–1 and the “absorbance vs. ligand concentration plot” value is given as “no deviation from the straight line”. This molecule displayed an IC50 in series [1] of 0.38 ± 0.01 µM. Besides, the inhibition at 25 µM in series [1] (read-out: BChE Inhibition (%)) amounted to 86.3%. Further, in series [2], the inhibition at 100 µM worked out at 17.7%.

On to `CN(C)C(=O)Oc1ccccc1/C=C/c1cccs1` [Compound 1, (E)-2-(2-(thiophen-2-yl)vinyl)phenyl dimethylcarbamate], for which, in series [3], the “Molar absorptivities” value is recorded as 22,570 M^–1cm^–1 and the “absorbance vs. ligand concentration plot” value is given as “no deviation from the straight line”. The molecule further registered an IC50 in series [1] of 0.12 ± 0.09 µM. Further, the inhibition at 50 µM in series [1] (read-out: BChE Inhibition (%)) amounted to 85%. The inhibition at 100 µM in series [2] is 30%.

On to `COc1ccc(/C=C/c2cccs2)c(OC(=O)N(C)C)c1` [Compound 6, (E)-5-methoxy-2-(2-(thiophen-2-yl)vinyl)phenyl dimethylcarbamate], for which, in series [3], the “absorptivity of the complex higher than that of the ligand” value is given as “ca. 64%”; the “molar absorptivity of the complex formed” value is recorded as “about 26,700 M^−1 cm^−1”; the “Molar absorptivities” value is 16,330 M^–1cm^–1. Moreover, it took 0.9 ± 0.14 µM to reach half-maximal inhibition in series [1] (IC50). Moreover, the inhibition at 25 µM in series [1] (read-out: BChE Inhibition (%)) was 84.4%. Also, the inhibition at 100 µM in series [2] stood at 1%.

In series [1], `Cc1ccc(OC(=O)N(C)C)c(/C=C/c2ccc(C)s2)c1` [Compound 8, (E)-4-methyl-2-(2-(5-methylthiophen-2-yl)vinyl)phenyl dimethylcarbamate] displayed an IC50 of 25.5 ± 0.21 µM. In addition, the inhibition at 100 µM in series [1] (read-out: BChE Inhibition (%)) worked out at 72.5%; in series [2], 25.2%.

In series [1], `COc1ccc(OC(=O)N(C)C)c(/C=C/c2cccs2)c1` [Compound 5, (E)-4-methoxy-2-(2-(thiophen-2-yl)vinyl)phenyl dimethylcarbamate] returned an IC50 of 11.6 ± 0.18 µM. Further, the inhibition at 100 µM in series [1] (read-out: BChE Inhibition (%)) is 84%; in series [2], 11%.

In series [1], `CN(C)C(=O)Oc1ccc(Cl)cc1/C=C/c1cccs1` [Compound 4, (E)-4-chloro-2-(2-(thiophen-2-yl)vinyl)phenyl dimethylcarbamate] yielded an IC50 of 2.83 ± 0.03 µM. The inhibition at 25 µM in series [1] (read-out: BChE Inhibition (%)) was found to be 85.3%. For the same molecule, the inhibition at 100 µM in series [2] was 35%.

In turn, `CN(C)C(=O)Oc1cccc(/C=C/c2cccs2)c1` [Compound 11, (E)-3-(2-(thiophen-2-yl)vinyl)phenyl dimethylcarbamate] showed an IC50 in series [1] of 11.4 ± 2.48 µM. Besides, the inhibition at 100 µM turned out to be 83.4% in series [1] (read-out: BChE Inhibition (%)) and 19% in series [2].

On to `CN(C)C(=O)Oc1ccc(F)cc1/C=C/c1cccs1` [Compound 3, (E)-4-fluoro-2-(2-(thiophen-2-yl)vinyl)phenyl dimethylcarbamate], for which, in series [3], the “absorptivity of the complex higher than that of the ligand” value was “about 26%”; the “molar absorptivity of the complex formed” value is 13,200 M^−1 cm^−1; the “Molar absorptivities” value is on record as 10,440 M^–1cm^–1. In series [1], this molecule showed an IC50 of 1.48 ± 0.36 µM. The inhibition at 100 µM in series [1] (read-out: BChE Inhibition (%)) is 85%. Also, the inhibition at 100 µM in series [2] came to 12.6%.

`Cc1ccc(OC(=O)N(C)C)c(/C=C/c2cccs2)c1` [Compound 2, (E)-4-methyl-2-(2-(thiophen-2-yl)vinyl)phenyl dimethylcarbamate] gave an IC50 in series [1] of 1.05 ± 0.09 µM. Further, in series [1] (read-out: BChE Inhibition (%)), the inhibition at 10 µM was 85%. Moreover, the inhibition at 100 µM in series [2] worked out at 16.7%.
